Experiments:
5-lipoxygenase = target: T1, 5-lipoxygenase (Homo sapiens, UniProt P09917); test: spectrophotometric enzyme assay at […] nm, linoleic acid substrate, human recombinant enzyme; assay type: biochemical; settings: read-out: Anti-inflammatory assay 5-LOX, IC50
T1 construct: gene ALOX5
T1 sequence (P09917 1-674): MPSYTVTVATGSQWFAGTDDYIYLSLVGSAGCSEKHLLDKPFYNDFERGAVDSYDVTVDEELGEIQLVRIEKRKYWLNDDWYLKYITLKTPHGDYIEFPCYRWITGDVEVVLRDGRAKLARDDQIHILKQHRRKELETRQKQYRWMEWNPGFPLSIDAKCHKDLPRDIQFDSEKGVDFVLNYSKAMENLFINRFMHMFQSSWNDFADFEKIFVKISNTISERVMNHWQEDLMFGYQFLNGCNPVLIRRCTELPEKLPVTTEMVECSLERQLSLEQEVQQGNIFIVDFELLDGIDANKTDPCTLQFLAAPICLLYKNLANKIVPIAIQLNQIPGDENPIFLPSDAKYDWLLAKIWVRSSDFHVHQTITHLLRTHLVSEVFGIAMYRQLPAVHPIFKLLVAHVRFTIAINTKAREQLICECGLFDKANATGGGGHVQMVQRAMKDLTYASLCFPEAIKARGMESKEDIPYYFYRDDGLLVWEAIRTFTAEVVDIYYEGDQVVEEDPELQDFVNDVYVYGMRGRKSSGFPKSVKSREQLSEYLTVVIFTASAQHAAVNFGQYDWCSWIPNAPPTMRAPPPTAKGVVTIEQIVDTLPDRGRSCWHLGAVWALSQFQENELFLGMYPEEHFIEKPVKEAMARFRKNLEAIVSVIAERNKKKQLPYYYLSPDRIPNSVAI

acetylcholinesterase = target: T2, acetylcholinesterase (Electrophorus electricus, UniProt O42275); test: Ellman spectrophotometric assay at […] nm, electric eel enzyme; assay type: biochemical; settings: read-out: Antiacetylcholinesterase assay, IC50
T2 construct: gene ache; Type-VI-S, EC 3.1.1.7
T2 sequence (O42275 24-633): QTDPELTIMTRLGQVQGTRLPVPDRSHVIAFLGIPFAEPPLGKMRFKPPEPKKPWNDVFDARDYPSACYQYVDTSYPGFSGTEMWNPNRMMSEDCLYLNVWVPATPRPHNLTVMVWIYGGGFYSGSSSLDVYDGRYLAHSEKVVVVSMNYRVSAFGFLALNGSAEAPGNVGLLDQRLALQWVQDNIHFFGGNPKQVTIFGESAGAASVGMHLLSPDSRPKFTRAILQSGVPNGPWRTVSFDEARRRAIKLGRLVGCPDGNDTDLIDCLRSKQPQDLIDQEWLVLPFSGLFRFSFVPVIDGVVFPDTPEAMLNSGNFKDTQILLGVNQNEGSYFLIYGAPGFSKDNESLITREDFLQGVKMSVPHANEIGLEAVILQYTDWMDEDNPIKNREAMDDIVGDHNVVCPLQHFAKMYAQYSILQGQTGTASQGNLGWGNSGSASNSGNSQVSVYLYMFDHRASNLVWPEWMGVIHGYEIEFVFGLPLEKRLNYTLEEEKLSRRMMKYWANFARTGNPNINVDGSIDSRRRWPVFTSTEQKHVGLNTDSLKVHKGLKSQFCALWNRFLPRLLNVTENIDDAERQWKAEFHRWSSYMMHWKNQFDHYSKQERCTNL

In the case of `COc1cc2ccc(=O)oc2cc1O` [SC, 7-hydroxy-6 methoxycoumarin], the IC50 (5-lipoxygenase) is reported as 1.76 ± 0.01 µM and the IC50 (acetylcholinesterase) is reported as 270 ± 0.02 µM.
